Measured values reported in US11261186B2, “Biaryl derivative as GPR120 agonist” (LG CHEM, LTD., priority 2014, dated 2022).

Molecular target: T1, hGPR120 (Homo sapiens, UniProt Q5NUL3)
T1 construct: expressed in transfected cells; host or cells: CHO-K1
T1 sequence (Q5NUL3 1-361): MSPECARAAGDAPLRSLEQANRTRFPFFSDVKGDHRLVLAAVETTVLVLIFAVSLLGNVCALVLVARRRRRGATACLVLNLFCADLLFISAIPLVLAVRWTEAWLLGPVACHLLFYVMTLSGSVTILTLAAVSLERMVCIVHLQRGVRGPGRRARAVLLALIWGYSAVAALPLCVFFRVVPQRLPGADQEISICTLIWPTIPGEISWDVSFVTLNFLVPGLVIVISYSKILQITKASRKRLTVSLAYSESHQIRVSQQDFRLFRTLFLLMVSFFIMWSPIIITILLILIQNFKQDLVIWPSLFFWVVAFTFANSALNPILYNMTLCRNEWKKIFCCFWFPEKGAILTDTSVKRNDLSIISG
Experiment: Measurement of Activity of GPR120 Agonist (Cell-Based Assay), Calcium 5 dye fluorescence
Conditions: CHO-K1 cells expressing Ga16 and hGPR120
How it was run: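 CHO-K1 cells co-expressing Gα16 and hGPR120, plated 18 h, loaded 1 h at 37°C with Calcium 5 dye. Serially diluted agonists added at 0.5% DMSO final; fluorescence read at Ex 485/Em 525 nm and expressed as relative % of DMSO-only signal.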

EC50 [nM]	Compound
200 to 2000	Cc1cc(OCC2CC2)nc(-c2cc(F)c(OCC3CC3C(=O)O)c(F)c2)n1 (stereo not shown) [Example 546, 2-[4-(4-cyclopropylmethoxy-6-methyl-pyrimidin-2-yl)-2,6-difluoro-phenoxymethyl]-cyclopropanecarboxylic acid]
200 to 2000	Cc1ccc(OCC2CCC2)cc1-c1cc(F)c(N(C)CCCC(=O)O)c(F)c1 [Example 529, 4-[(5′-cyclobutylmethoxy-3,5-difluoro-2′-methyl-biphenyl-4-yl)-methyl-amino]-butyric acid]
< 200	COc1cccc2ccn(-c3cc(F)c(OCCCC(=O)O)c(F)c3)c12 [Example 479, 4-[2,6-difluoro-4-(7-methoxyindol-1-yl)phenoxy]butanoic acid]
< 200	O=C(O)CCCSc1ccc(-c2cccc3c2OC(F)(F)O3)cc1F [Example 154, 4-[4-(2,2-difluoro-benzo[1,3]dioxol-4-yl)-2-fluoro-phenylsulfanyl]-butyric acid]
200 to 2000	O=C(O)CC1CCN(c2c(F)cc(-c3cccnc3OC3CCOC3)cc2F)CC1 (stereo not shown) [Example 103, 2-[1-[2,6-difluoro-4-(2-tetrahydrofuran-3-yloxy-3-pyridyl)phenyl]-4-piperidyl]acetic acid]
200 to 2000	CC(C)Sc1ncccc1-c1ccc2nc(CCC(=O)O)ccc2c1 [Example 1, 3-[6-(2-isopropylsulfanyl-pyridin-3-yl)-quinolin-2-yl]-propionic acid]
< 200	CC(C)Sc1cccc(-c2cc(F)c(N3CC(CC(=O)O)C3)c(F)c2)n1 [Example 114, 2-[1-[2,6-difluoro-4-(6-isopropylsulfanyl-2-pyridyl)phenyl]azetidin-3-yl]acetic acid]
< 200	Cc1cnc(OC2CCCC2)c(-c2cc(F)c(N(C)CCCC(=O)O)c(F)c2)c1 [Example 217, 4-{[4-(2-cyclopentyloxy-5-methyl-pyridin-3-yl)-2,6-difluoro-phenyl]-methyl-amino}-butyric acid]
200 to 2000	COc1cccc(-c2cc(F)c(OCCCC(=O)O)c(F)c2)c1OC [Example 446, 4-[4-(2,3-dimethoxyphenyl)-2,6-difluoro-phenoxy]butanoic acid]
< 200	O=C(O)C[C@H]1CCN(c2c(F)cc(-c3cccc(OCC4CC4)n3)cc2F)C1 [Example 438, {(R)-1-[4-(6-cyclopropylmethoxy-pyridin-2-yl)-2,6-difluoro-phenyl]-pyrrolidin-3-yl}-acetic acid]
2000 to 20000	O=C(O)CCCOc1c(F)cc(-c2cccnc2SC2CCCCC2)cc1F [Example 292, 4-[4-(2-cyclohexylsulfanyl-pyridin-3-yl)-2,6-difluoro-phenoxy]-butyric acid]
200 to 2000	CC(Oc1cccc(-c2cc(F)c(N3CCC(CC(=O)O)CC3)c(F)c2)n1)C(F)(F)F (stereo not shown) [Example 316, 2-[1-[2,6-difluoro-4-[6-(2,2,2-trifluoro-1-methyl-ethoxy)-2-pyridyl]phenyl]-4-piperidyl]acetic acid]
2000 to 20000	CCN(CC)c1cncc(-c2cc(F)c(N3CCC(CC(=O)O)CC3)c(F)c2)n1 [Example 355, 2-[1-[4-[6-(diethylamino)pyrazin-2-yl]-2,6-difluoro-phenyl]-4-piperidyl]acetic acid]
< 200	CCCOc1cccc(-c2ccc3c(c2)CCC(CCC(=O)O)O3)n1 (stereo not shown) [Example 556, 3-[6-(6-propoxy-pyridin-2-yl)-chroman-2-yl]-propionic acid]
200 to 2000	O=C(O)CCSCc1ccc(-c2cccnc2OC2CCCC2)cc1 [Example 293, 3-[4-(2-cyclopentyloxy-pyridin-3-yl)-benzylsulfanyl]-propionic acid]
200 to 2000	CN(CCCC(=O)O)c1c(F)cc(-c2cccc(N3CCCC3)c2)cc1F [Example 201, 4-[(3,5-difluoro-3′-pyrrolidin-1-yl-biphenyl-4-yl)-methyl-amino]-butyric acid]
200 to 2000	CC(CCCC(=O)O)c1c(F)cc(-c2cccnc2OC2COC2)cc1F (stereo not shown) [Example 232, 5-{2,6-difluoro-4-[2-(oxetan-3-yloxy)-pyridin-3-yl]-phenyl}-hexanoic acid]
200 to 2000	CCCOc1ncccc1-c1cc(F)c(N2CCC(CC(=O)O)CC2)c(F)c1 [Example 120, 2-[1-[2,6-difluoro-4-(2-propoxy-3-pyridyl)phenyl]-4-piperidyl]acetic acid]
< 200	CN(CCCC(=O)O)c1c(F)cc(-c2ccccc2NC2CCCC2)cc1F [Example 215, 4-[(2′-cyclopentylamino-3,5-difluoro-biphenyl-4-yl)-methyl-amino]-butyric acid]
200 to 2000	O=C(O)COCCc1c(F)cc(-c2cccnc2SC2CCC2)cc1F [Example 38, {2-[4-(2-cyclobutylsulfanyl-3-pyridyl)-2,6-difluoro-phenyl]ethoxy}acetic acid]
< 200	CC1(C)Cc2c(cccc2-c2ccc(OCCCC(=O)O)c(F)c2)O1 [Example 194, 4-[4-(2,2-dimethyl-2,3-dihydro-benzofuran-4-yl)-2-fluoro-phenoxy]-butyric acid]
< 200	Cc1ccc(-c2cc(F)c(OCCCC(=O)O)c(F)c2)cc1OCC1CC1 [Example 532, 4-(3′-cyclopropylmethoxy-3,5-difluoro-4′-methyl-biphenyl-4-yloxy)-butyric acid]
< 200	O=C(O)CCCOc1c(F)cc(-c2cccc3c2OC2(CCCC2)C3)cc1F [Example 261, 4-(2,6-difluoro-4-spiro[3H-benzofuran-2,1′-cyclopentan]-7-yl-phenoxy)-butyric acid]
< 200	CCCSc1ncccc1-c1cc(F)c(C2CC2CCC(=O)O)c(F)c1 (stereo not shown) [Example 179, 3-{2-[2,6-difluoro-4-(2-propylsulfanyl-pyridin-3-yl)-phenyl]-cyclopropyl}-propanoic acid]
200 to 2000	CC(C)CNc1cncc(-c2cc(F)c(N3CCC(CC(=O)O)C3)c(F)c2)n1 (stereo not shown) [Example 503, 2-{1-[2,6-difluoro-4-(6-isobutylamino-pyrazin-2-yl)phenyl]pyrrolidin-3-yl}acetic acid]
200 to 2000	O=C(O)CC1CCN(c2c(F)cc(-c3cccc(OCC4CCC4)n3)cc2F)CC1 [Example 308, 2-[1-[4-[6-(cyclobutylmethoxy)-2-pyridyl]-2,6-difluoro-phenyl]-4-piperidyl]acetic acid]
< 200	CCCOc1cccc(-c2cc(F)c(OCCCC(=O)O)c(F)c2)c1OCCC [Example 454, 4-[4-(2,3-dipropoxyphenyl)-2,6-difluoro-phenoxy]butanoic acid]
< 200	O=C(O)CCC1CC1c1c(F)cc(-c2cccc(OCC3CC3)n2)cc1F (stereo not shown) [Example 191, 3-{2-[4-(6-cyclopropylmethoxy-pyridin-2-yl)-2,6-difluoro-phenyl]-cyclopropyl}-propanoic acid]
200 to 2000	CCCOc1cccc(-c2cc(F)c(N(C)CCCC(=O)O)c(F)c2)c1OCCC [Example 460, 4-[4-(2,3-dipropoxyphenyl)-2,6-difluoro-N-methyl-anilino]butanoic acid]
< 200	CN(CCCC(=O)O)c1c(F)cc(-c2cccnc2SC2CCC2)cc1F [Example 195, 4-{[4-(2-cyclobutylsulfanyl-pyridin-3-yl)-2,6-difluoro-phenyl]-methyl-amino}-butyric acid]

Compound	EC50 [nM]
Cc1c(OC2CCC2)cccc1-c1cc(F)c(N2CCC(CC(=O)O)CC2)c(F)c1 [Example 310, 2-[1-[4-[3-(cyclobutoxy)-2-methyl-phenyl]-2,6-difluoro-phenyl]-4-piperidyl]acetic acid]	2000 to 20000
CCCCOc1csc(-c2cc(F)c(N3CCC(CC(=O)O)CC3)c(F)c2)n1 [Example 380, {1-[4-(4-butoxy-thiazol-2-yl)-2,6-difluoro-phenyl]-piperidin-4-yl}acetic acid]	200 to 2000
COc1ccc(-c2ccc(C(F)(F)CCCC(=O)O)cc2)nc1OC1CCC1 [Example 464, 5-[4-[6-(cyclobutoxy)-5-methoxy-2-pyridyl]phenyl]-5,5-difluoro-pentanoic acid]	< 200
O=C(O)CC1CCN(c2c(F)cc(-c3cccc(OC4CCC4)n3)cc2F)CC1 [Example 294, 2-[1-[4-[6-(cyclobutoxy)-2-pyridyl]-2,6-difluoro-phenyl]-4-piperidyl]acetic acid]	< 200
O=C(O)CCCOc1c(F)cc(-c2cc(F)cc(OC3CCC3)c2)cc1F [Example 528, 4-(5′-cyclobutoxy-3,5,3′-trifluoro-biphenyl-4-yloxy)-butyric acid]	< 200
O=C(O)CCCOc1ccc(-c2cccnc2OC2CCC2)cc1F [Example 233, 4-[4-(2-cyclobutoxy-pyridin-3-yl)-2-fluoro-phenoxy]-butyric acid]	200 to 2000
Cc1cc(OC2CCC2)nc(-c2cc(F)c(OCCCC(=O)O)c(Cl)c2)c1 [Example 429, 4-[2-chloro-4-(6-cyclobutoxy-4-methyl-pyridin-2-yl)-6-fluoro-phenoxy]-butyric acid]	< 200
COc1ccc(-c2cc(F)c(N(C)CCCC(=O)O)c(F)c2)nc1OC1CCC1 [Example 456, 4-[4-[6-(cyclobutoxy)-5-methoxy-2-pyridyl]-2,6-difluoro-N-methyl-anilino]butanoic acid]	< 200
Cc1cc(OC2CCC2)nc(-c2cc(F)c(C(C)CCCC(=O)O)c(F)c2)n1 (stereo not shown) [Example 419, 5-[4-(4-cyclobutoxy-6-methyl-pyrimidin-2-yl)-2,6-difluoro-phenyl]-hexanoic acid]	< 200
O=C(O)C1CC1COc1c(F)cc(-c2cncc(OC3CCC3)n2)cc1F (stereo not shown) [Example 550, 2-[4-(6-cyclobutoxy-pyrazin-2-yl)-2,6-difluoro-phenoxymethyl]-cyclopropanecarboxylic acid]	< 200
